In brackets after ≈: the same amount, converted by molar mass. Read-outs that look alike come from different tables or passages of the source.
Key:
[1] = test system: MCF-7 breast cancer cells; assay: cytotoxicity assay on MCF-7 breast cancer cells; format: cell-based, human
Protocol: The cytotoxic activity of trans-desoxylaulimalide (12a) was evaluated. An initial cytotoxicity study with desoxylaulimalide (12a) was conducted to compare compound (12a) to taxol and laulimalide for effects on the growth of human MCF-7 breast cancer cells. Cytotoxicity assays on MCF-7 were performed as described in P. Giannakakou et al., J. Biol. Chem., 272, 17118–17125 (1997). Consistent with its activity in a tubulin assembly assay, desoxylaulimalide (12a) was an inhibitor of cell growth. […] Thus, desoxylaulimalide (12a) is about 1/50 as active as laulimalide in the MCF-7 cells. This compares with the 340-fold lower activity in MDA-MB-435 breast cancer cells observed for isolaulimalide (9), which also lacks the epoxide moiety.

tubulin = tubulin assembly assay / microtubule stabilization; format: biochemical
KB cell line = settings: cited from earlier work
[2] = test system: P388, A549, HT29, and MEL28 cell lines; settings: range over four cell lines; cited from earlier work
[3] = test system: MDA-MB-435 and SK-OV-3 cell lines; settings: drug-sensitive cell lines MDA-MB-435 and SK-OV-3; read-out: IC50, inhibition of cell proliferation; cited from earlier work
[4] = test system: SKVLB-1 multidrug resistant cell line; settings: multidrug resistant cell line SKVLB-1; read-out: IC50 against SKVLB-1; cited from earlier work
[5] = test system: P-glycoprotein-mediated MDR cell lines; settings: cited from earlier work
[6] = test system: MDA-MB-435 breast cancer cells; settings: cited from earlier work
[7] = Homo sapiens, MCF7, read-out: IC50, inhibition of cell growth

With `C=C1C[C@H](C)C[C@@H]2CC=C[C@@H](C/C=C\C(=O)O[C@H]([C@@H](O)/C=C/[C@@H]3CC(C)=CCO3)C/C=C/[C@@H](O)C1)O2` [12a, desoxylaulimalide] the IC50 [1, 7] was 360 nM, the “activity relative to laulimalide” value ([1]; MCF-7 cells) was “about 1/50” and the “effect on the tubulin assembly reaction” value (tubulin) was “stimulates the tubulin assembly reaction”. The “potency with respect to microtubule stabilization” value (tubulin; compared with laulimalide (2)) was “potency similar to laulimalide (2)”.

For `C=C1C[C@H](C)C[C@@H]2CC=C[C@@H](C/C=C\C(=O)O[C@H]([C@@H](O)/C=C/[C@@H]3CC(C)=CCO3)C[C@@H]3O[C@H]3[C@@H](O)C1)O2` [laulimalide], the IC50 [1, 7] is listed as 7 nM, the “IC50, cytotoxicity against KB cell line” value (KB cell line) is listed as 0.015 µg/mL (≈ 0.0291 µM) and the “IC50, cytotoxicity against P388, A549, HT29, and MEL28 cell lines” value [2] is listed as 0.01 to 0.05 µg/mL. For the same molecule, the IC50 [3] was 5 to 12 nM, the IC50 [4] was 1200 nM and the “fold more potent than taxol” value [5] was 100 fold.

In the case of `C=C1CC(C)C[C@@H]2CC=C[C@@H](C/C=C\C(=O)O[C@@H]3C[C@H](O[C@@H]3/C=C/[C@H]3CC(C)=CCO3)[C@H](O)C(O)C1)O2` (stereo partly drawn) [isolaulimalide], the IC50 (KB cell line; read-out: IC50 against KB cell line) is listed as > 200 nM, the IC50 [4] is listed as 2600 nM and the “fold lower activity (compared with laulimalide)” value [6] is listed as 340 fold.

For `CC(=O)O[C@H]1C(=O)[C@@]2(C)[C@H]([C@H](OC(=O)c3ccccc3)[C@]3(O)C[C@H](OC(=O)[C@H](O)[C@@H](NC(=O)c4ccccc4)c4ccccc4)C(C)=C1C3(C)C)[C@]1(OC(C)=O)CO[C@@H]1C[C@@H]2O` [taxol], the IC50 ([1]; MCF7, human MCF-7 breast cancer cells, read-out: IC50, inhibition of cell growth) is listed as 2.4 nM and the IC50 [3] is listed as 1000 to 2000 nM.

Source: patent US7109235B2, “Microtubule stabilizing compounds” (The Board of Trustees of the University Illinois, priority 2002, dated 2006)
